Measured values as given in BindingDB's records for doi:10.1021/jm030121k (Boehringer Ingelheim Pharmaceuticals, 2003).

Target: Mitogen-activated protein kinase 14 (Mus musculus, UniProt P47811)
Assay: UV-Thermal Melt
Description: UV thermal melt experiments were carried out in a quartz cuvette loaded with sample containing enzyme and each test compound using a spectrophotometer. For each measurement, absorbance data at 230 nm was collected as the temperature was scanned from 25 to 80 C at a ramp rate of 0.2 C /min. The melting temperature (Tm) for each sample was calculated as the maximum deflection point of the first derivative of the melting transition.

Sequence of Mitogen-activated protein kinase 14 (P47811 whole entry): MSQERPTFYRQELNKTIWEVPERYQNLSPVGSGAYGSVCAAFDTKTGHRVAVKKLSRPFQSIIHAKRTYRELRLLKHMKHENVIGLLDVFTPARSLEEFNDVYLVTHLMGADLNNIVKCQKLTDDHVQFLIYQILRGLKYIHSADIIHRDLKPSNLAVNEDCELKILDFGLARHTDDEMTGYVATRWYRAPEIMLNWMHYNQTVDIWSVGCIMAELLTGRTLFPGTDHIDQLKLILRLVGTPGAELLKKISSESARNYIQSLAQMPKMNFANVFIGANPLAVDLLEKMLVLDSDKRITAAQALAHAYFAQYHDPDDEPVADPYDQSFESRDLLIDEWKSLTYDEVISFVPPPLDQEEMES

Cc1ccc(-n2nc(C(C)(C)C)cc2NC(=O)Nc2cccc3ccccc23)cc1 [BIRB-796 Analog 4]
Kd: 11 nM
